This passage reports IC50 results from BindingDB's records for doi:10.1021/jm00163a069 (Merck Sharp & Dohme Research Laboratories, 1990).

The assay is described as follows: Inhibition of binding of [125I]CCK-8 to Cholecystokinin type B receptor in guinea pig brain tissues.

By IC50 is commonly meant the concentration at which inhibition is half-maximal. Low readings indicate inhibition by little substance, high ones a need for much substance. In the case of `O=C(NCC1CNc2ccccc2C(c2ccccc2F)=N1)C(O)c1ccccc1` (stereo unspecified), the half-maximal inhibitory concentration (IC50) was above 100 µM.
